Data on eleven molecules can be found in PubChem BioAssay AID260 (DTP/NCI, 2004).

Several values for one entry are separate records, joined by “and”; a condition that tells them apart may be missing. Identical values can stand only once. Toxic doses and inconclusive results are not listed.

For the experiment, the system named is CD2F1 mice, intracerebral L1210 leukemia, survival T/C. The experiment in a line: NCI In Vivo Anticancer Drug Screen. Data for tumor model L1210 Leukemia (intracerebral) in CD2F1 (CDF1) mice. Conditions: higher = longer survival. The procedure: The antitumor activity of compounds was measured in mice bearing transplantable tumors. Survival or tumor size were measured and the results are expressed as the measurement made in the treated group (T) divided by the measurement made in the vehicle treated control group (C). The tumor model used in this assay is L1210 Leukemia (intracerebral) in CD2F1 (CDF1) mice

Where [1] appears, read: endpoint: mean survival time, dose: 50.0 mg/kg/injection, schedule: Q01DX009 (ip), vehicle: saline.
Setting [2] is: endpoint: mean survival time, dose: 200.0 mg/kg/injection, schedule: Q01DX009 (ip), vehicle: saline.
The mark [3] stands for this setting: endpoint: median survival time, dose: 32.0 mg/kg/injection, schedule: Q01DX005 (ip), vehicle: saline with Tween-80.
Where [4] appears, read: endpoint: median survival time, dose: 64.0 mg/kg/injection, schedule: Q01DX005 (ip), vehicle: saline with Tween-80.
Where [5] appears, read: endpoint: median survival time, dose: 128.0 mg/kg/injection, schedule: Q01DX005 (ip), vehicle: saline with Tween-80.

Regarding `CN(N=O)C(=O)N[C@@H](C=O)[C@@H](O)[C@H](O)[C@H](O)CO`, the T/C runs as follows: (endpoint: mean survival time, dose: 50.0 mg/kg/injection, schedule: Q01DX005 (ip), vehicle: saline) 100 % of control; under setting [1], 102 % of control; (endpoint: mean survival time, dose: 100.0 mg/kg/injection, schedule: Q01DX005 (ip), vehicle: saline) 102 % of control; (endpoint: mean survival time, dose: 100.0 mg/kg/injection, schedule: Q01DX009 (ip), vehicle: saline) 100 % of control; (endpoint: mean survival time, dose: 200.0 mg/kg/injection, schedule: Q01DX005 (ip), vehicle: saline) 104 % of control; under setting [2], 100 % of control. Also, the T/C (endpoint: mean survival time, dose: 400.0 mg/kg/injection, schedule: Q01DX009 (ip), vehicle: saline) was 95 % of control; the T/C (endpoint: median survival time, dose: 75.0 mg/kg/injection, schedule: Q01DX001 (ip), vehicle: DMSO) is 102 % of control; the T/C (endpoint: median survival time, dose: 75.0 mg/kg/injection, schedule: Q01DX001 (ip), vehicle: other) is 103 % of control; the T/C (endpoint: median survival time, dose: 75.0 mg/kg/injection, schedule: Q01DX001 (oral), vehicle: saline) is 109 % of control; the T/C (endpoint: median survival time, dose: 150.0 mg/kg/injection, schedule: Q01DX001 (ip), vehicle: DMSO) was 114 % of control; the T/C (endpoint: median survival time, dose: 150.0 mg/kg/injection, schedule: Q01DX001 (ip), vehicle: other) was 107 % of control. Further, the T/C was 100 % of control (endpoint: median survival time, dose: 150.0 mg/kg/injection, schedule: Q01DX001 (oral), vehicle: saline); 114 % of control (endpoint: median survival time, dose: 300.0 mg/kg/injection, schedule: Q01DX001 (ip), vehicle: DMSO); 109 % of control (endpoint: median survival time, dose: 300.0 mg/kg/injection, schedule: Q01DX001 (ip), vehicle: other); 113 % of control (endpoint: median survival time, dose: 300.0 mg/kg/injection, schedule: Q01DX001 (oral), vehicle: saline); 112 % of control (endpoint: median survival time, dose: 500.0 mg/kg/injection, schedule: Q01DX001 (ip), vehicle: DMSO); 103 % of control (endpoint: median survival time, dose: 500.0 mg/kg/injection, schedule: Q01DX001 (ip), vehicle: other). The T/C (endpoint: median survival time, dose: 500.0 mg/kg/injection, schedule: Q01DX001 (oral), vehicle: saline) is 100 % of control.
With `O=CC(NC(=O)N(CCCl)N=O)C(O)C(O)C(O)CO` (centres undefined), the T/C runs as follows: (endpoint: median survival time, dose: 3.13 mg/kg/injection, schedule: Q01DX001 (ip), vehicle: saline) 103 % of control; (endpoint: median survival time, dose: 6.25 mg/kg/injection, schedule: Q01DX001 (ip), vehicle: saline) 106 % of control; (endpoint: median survival time, dose: 12.5 mg/kg/injection, schedule: Q01DX001 (ip), vehicle: saline) 122 % of control; (endpoint: median survival time, dose: 25.0 mg/kg/injection, schedule: Q01DX001 (ip), vehicle: DMSO) 152 % of control; (endpoint: median survival time, dose: 50.0 mg/kg/injection, schedule: Q01DX001 (ip), vehicle: DMSO) 95 % of control; (endpoint: median survival time, dose: 50.0 mg/kg/injection, schedule: Q01DX001 (ip), vehicle: saline) 92 % of control. In addition, the T/C (endpoint: median survival time, dose: 50.0 mg/kg/injection, schedule: Q01DX001 (oral), vehicle: saline) is 97 % of control.
With `CCCN(C)C(=O)N(CCCl)N=O`, the T/C runs as follows: (endpoint: median survival time, dose: 15.6 mg/kg/injection, schedule: Q01DX001 (ip), vehicle: DMSO) 166 % of control; (endpoint: median survival time, dose: 15.6 mg/kg/injection, schedule: Q01DX001 (oral), vehicle: saline + alcohol) 113 % of control; (endpoint: median survival time, dose: 31.3 mg/kg/injection, schedule: Q01DX001 (ip), vehicle: saline + alcohol) 172 % of control; (endpoint: median survival time, dose: 31.3 mg/kg/injection, schedule: Q01DX001 (oral), vehicle: saline + alcohol) 154 % of control; (endpoint: median survival time, dose: 62.5 mg/kg/injection, schedule: Q01DX001 (ip), vehicle: saline + alcohol) 389 % of control; (endpoint: median survival time, dose: 62.5 mg/kg/injection, schedule: Q01DX001 (oral), vehicle: saline + alcohol) 271 % of control. In addition, the T/C is, setting by setting: (endpoint: median survival time, dose: 125.0 mg/kg/injection, schedule: Q01DX001 (ip), vehicle: saline + alcohol) 198 % of control; (endpoint: median survival time, dose: 125.0 mg/kg/injection, schedule: Q01DX001 (oral), vehicle: saline + alcohol) 490 % of control; (endpoint: median survival time, dose: 250.0 mg/kg/injection, schedule: Q01DX001 (ip), vehicle: DMSO) 169 % of control; (endpoint: median survival time, dose: 250.0 mg/kg/injection, schedule: Q01DX001 (ip), vehicle: saline + alcohol) 116 % of control; (endpoint: median survival time, dose: 250.0 mg/kg/injection, schedule: Q01DX001 (oral), vehicle: saline + alcohol) 97 % of control.
Turning to `CCCCCCCCCCCCCCCCCC(=O)Nc1ccn(C2OC(CO)C(O)C2O)c(=O)n1` (centres undefined), the T/C runs as follows: (endpoint: median survival time, dose: 25.0 mg/kg/injection, schedule: Q01DX009 (ip), vehicle: saline with Tween-80) 188 % of control; (endpoint: median survival time, dose: 100.0 mg/kg/injection, schedule: Q01DX009 (ip), vehicle: saline with Tween-80) 121 % of control.
With `CN(CCO)/N=N/c1nc[nH]c1C(N)=O`, the T/C reads like this: under setting [3], 107 % of control; under setting [4], 106 % of control; under setting [5], 109 % of control; (endpoint: median survival time, dose: 256.0 mg/kg/injection, schedule: Q01DX005 (ip), vehicle: saline with Tween-80) 119 % of control.
As for `CCC(C)N(C)/N=N/c1nc[nH]c1C(N)=O` (centres undefined), the T/C reads like this: (endpoint: median survival time, dose: 16.0 mg/kg/injection, schedule: Q01DX005 (ip), vehicle: saline with Tween-80) 105 % of control; under setting [3], 105 % of control; under setting [4], 116 % of control; under setting [5], 116 % of control.
Take `C[C@H](CN1CC(=O)NC(=O)C1)N1CC(=O)NC(=O)C1`: the T/C is, setting by setting: (endpoint: mean survival time, dose: 64.0 mg/kg/injection, schedule: Q01DX009 (ip), vehicle: water) 159 % of control; (endpoint: mean survival time, dose: 128.0 mg/kg/injection, schedule: Q01DX009 (ip), vehicle: water) 109 % of control; (endpoint: mean survival time, dose: 256.0 mg/kg/injection, schedule: Q01DX009 (ip), vehicle: water) 90 % of control.
As for `Nc1nncs1`, the T/C (endpoint: median survival time, dose: 7.5 mg/kg/injection, schedule: Q01DX009 (ip), vehicle: Klucel (hydroxypropylcellulose) (HPC)) was 113 % of control; the T/C (endpoint: median survival time, dose: 60.0 mg/kg/injection, schedule: Q01DX009 (ip), vehicle: Klucel (hydroxypropylcellulose) (HPC)) was 112 % of control; the T/C under setting [4] was 118 % of control and 121 % of control and 116 % of control.
For the molecule `CCC(=O)O[C@H]1CC[C@H]2[C@@H]3CC[C@H]4CC(=O)[C@H](C)C[C@]4(C)[C@H]3CC[C@]12C`, the T/C is, setting by setting: (endpoint: median survival time, dose: 8.0 mg/kg/injection, schedule: Q01DX009 (ip), vehicle: saline with Tween-80) 105 % of control and 115 % of control; (endpoint: median survival time, dose: 16.0 mg/kg/injection, schedule: Q01DX009 (ip), vehicle: saline with Tween-80) 105 % of control; (endpoint: median survival time, dose: 32.0 mg/kg/injection, schedule: Q01DX009 (ip), vehicle: saline with Tween-80) 105 % of control; (endpoint: median survival time, dose: 64.0 mg/kg/injection, schedule: Q01DX009 (ip), vehicle: saline with Tween-80) 122 % of control and 101 % of control; (endpoint: median survival time, dose: 128.0 mg/kg/injection, schedule: Q01DX009 (ip), vehicle: saline with Tween-80) 103 % of control; (endpoint: median survival time, dose: 256.0 mg/kg/injection, schedule: Q01DX009 (ip), vehicle: saline with Tween-80) 104 % of control. Besides, the T/C (endpoint: median survival time, dose: 512.0 mg/kg/injection, schedule: Q01DX009 (ip), vehicle: saline with Tween-80) was 121 % of control and 103 % of control.
Regarding `Nc1n[nH]c(N)n1`, the T/C is 96 % of control (endpoint: mean survival time, dose: 512.0 mg/kg/injection, schedule: Q12HX018 (ip), vehicle: saline); 107 % of control (endpoint: mean survival time, dose: 1024.0 mg/kg/injection, schedule: Q12HX018 (ip), vehicle: saline); 110 % of control (endpoint: mean survival time, dose: 2048.0 mg/kg/injection, schedule: Q12HX018 (ip), vehicle: saline); 107 % of control and 116 % of control (endpoint: median survival time, dose: 128.0 mg/kg/injection, schedule: Q01DX005 (ip), vehicle: saline); 108 % of control and 111 % of control (endpoint: median survival time, dose: 256.0 mg/kg/injection, schedule: Q01DX005 (ip), vehicle: saline); 120 % of control and 115 % of control (endpoint: median survival time, dose: 512.0 mg/kg/injection, schedule: Q01DX005 (ip), vehicle: saline). Also, the T/C (endpoint: median survival time, dose: 1024.0 mg/kg/injection, schedule: Q01DX005 (ip), vehicle: saline) is 119 % of control.
For the molecule `CN(C)N=Nc1ccc(C(=O)O)cc1`, the T/C by setting is: (endpoint: mean survival time, dose: 10.0 mg/kg/injection, schedule: Q01DX007 (ip), vehicle: DMSO) 91 % of control; (endpoint: mean survival time, dose: 20.0 mg/kg/injection, schedule: Q01DX007 (ip), vehicle: DMSO) 96 % of control; (endpoint: mean survival time, dose: 25.0 mg/kg/injection, schedule: Q01DX009 (ip), vehicle: saline) 104 % of control; (endpoint: mean survival time, dose: 40.0 mg/kg/injection, schedule: Q01DX007 (ip), vehicle: DMSO) 108 % of control; under setting [1], 119 % of control; (endpoint: mean survival time, dose: 80.0 mg/kg/injection, schedule: Q01DX007 (ip), vehicle: DMSO) 122 % of control. The T/C under setting [2] was 113 % of control.
